Key:
Format in all cases: cell-based
[1] = tested on: ATP-binding site of GRP78; assay: Competition with VER-155008 on probe labelling; settings: MCF7, VER-155008 100 μM 1 hour before probe
Description: In total, 114 protein targets were identified from in-column digestion (called data set 1, n=4), 204 targets from in-gel digestion (called data set 2, n=4) and 1085 from in-bead digestion (called data set 3, n=2, FIG. 12c). The 3PB-beads pull down reflects the “double band” pattern observed with the incubation of 3PB/3PBis in the cell lysate (FIG. 12b). To increase the stringency of our in-beads digestion data set, we performed an enrichment analysis over control Peg-beads (n=2) and we identified 333 proteins setting a cut-off fold-enrichment (FC)≥1.3 between 3PB- and Peg-beads, while 166 proteins are identified with a FC≥2.5. By using the less stringent filter (FC≥1.3) and looking for proteins in common in the three data set, we identified 15 proteins as putative 3PB targets. These factors are known to be involved in tRNAs selection and ribosome elongation (eEF1A, eEF2, eEF4G), ribosome structure (RPL18), protein folding (HSP5A, HSP90AB1, PPIA), metabolism (PHGFH, ENO1, GAPDH, ALB), RNA processing (HNRNPK) and cellular structure (KRT2, KRT10, ACTB). […] After pull-down assay using avidin-magnetic beads (FIG. 12e and FIG. 13a) we observed the presence of the lower HSPA5/GRP78 band, while the upper band (although dominant in the input) was not detected. […]

[2] = tested on: cellular proteins of HEK-293 and MCF7 cell lines; assay: 3Px probe protein labelling, UV irradiation, anti-puromycin immunoblot
Description: For our initial analysis, we treated HEK-293 and MCF7 cell lines in complete culture medium with the 3PB probe (10 μM) for 10 min, followed by irradiation for 5 min on ice (total power: 0.75 J/cm2). We first assessed 3PB labeling of cellular proteins using SDS-PAGE analysis. […] Then, we compared the labelling activity of 3PB, 3PA and 3PBis in HEK293 and MCF7 cells, adding the probes before or after cell lysis. In the latter case, each probe is incubated for 1 h in the cytoplasmic cell extract at 4° C., followed by UV irradiation (0.75 J/cm^2) of the treated lysate. […] Therefore, both 3PB and 3PBis show additional bands with MW=˜50 kDa, when reacted in the cell lysate, with respect to the situation when probes are incubated with growing cells (FIG. 6a). […] This is presumably due to the higher hydrophobicity of the 3PBis probe and a consequent better cell membrane penetration (FIG. 7).
To test 3PN and 3PO activity, we treated MCF7 cells with different concentrations of the two drugs for 10 min, followed by UV-356 irradiation.
Reaction in cell culture: MCF7 or HEK-293 cells were grown to 80% of confluence and treated with CHX (10 μg/mL, 5 min, 37° C.) and then with the probe (10 min, 37 C). Cells were then washed with cold PBS (containing CHX 10 μg/mL), placed on ice and irradiated under a UV lamp (BLX-365, 5×8 W) at 365 nm for 5 min (0.75 J/cm^2) followed by lysis with hypotonic cytoplasmic buffer. Reaction in the cell lysate: HEK-293 or MCF7 cells were treated with CHX (10 μg/mL, 5 min). After hypotonic lysis and precipitation of nuclei and cellular debris by centrifugations at 18000 g, 4° C., 5 min, the supernatant was diluted to A260=1 a.u/μL with 10 mM NaCl, 10 mM MgCl2, 20 μg/mL cycloheximide, 10 mM Hepes, pH 7 in DEPC water, to a final volume of 150 μL. The diluted lysate was then incubated with the reactive probe for 1 hour in a 12-well plate and then UV-irradiated (BLX-365) at 365 nm for 5 min (0.75 J/cm2).
Cell lysates were prepared as described above. Proteins were separated by SDS-polyacrylamide gel electrophoresis and transferred onto PVDF membranes. […]

MCF7 cells [3] = assay: Polysome profiling of probe-treated cells; settings: MCF7, 50 μM, 10 min
Description: To better understand the effect of 3Px on the global translation efficiency, we compared the polysome profiles from DMSO and probes-treated cells. By treating MCF7 cells with 50 μM 3PBis or 3PB for 10 min, we observed a 10% reduction of the polysome/80S ratio (calculated by comparing the area under the 80S peak and the combined area under the polysome peaks, FIG. 11a). This effect is independent from the UV-treatment. Incubation of 3PB and 3PBis for longer times (7 hours or 18 hours) results in a depression of the polysome/80S area ratio of >50%, meaning that treatments with 3PBis can depress translation, increasing the 80S pick and reducing heavy polyribosomes (FIG. 11b).
Cells were incubated for 5 minutes with cycloheximide 10 μg/mL at 37° C. to trap the ribosomes on the mRNAs. Cells were then washed with PBS complemented with cycloheximide (10 μg/mL) and scraped directly on the plate with 300 μL of lysis buffer (10 mM NaCl, 10 mM MgCl2, 10 mM Tris-HCl, pH 7.5, 1% Triton X-100, 1% sodium deoxycholate, […], 5 U/mL DNAse I, 200 U/mL RNase inhibitor, and 10 μg/mL cycloheximide, protease inhibitor). Nuclei and cellular debris were removed by three consecutive centrifugations (800 g, 5 min at 4° C.). […] The fraction corresponding to the 40S, 60S and 80S peaks and those corresponding to polysomes were collected monitoring the absorbance at 254 nm. […]

MCF7 cells [4] = assay: Probe labelling after puromycin/CHX treatment, CuAAC Cy3-azide, in-gel fluorescence; settings: MCF7, puromycin 20 and 100 μM 2 hours; 3PB 100 μM or 3PBis 50 μM, 10 min
Description: Next, we asked if the labelling is sensitive on puromycin treatment (i.e. dependent on ribosome activity). To do that, we first treated MCF7 cell with puromycin followed by 10 min incubation with 3PB or 3PBis. When used in minimal amounts, puromycin can be incorporated in neosynthesized proteins^25, while high concentrations as well as long incubation times, fully block translation. We first define the concentration that allows puromycin to be incorporated in the nascent peptide chain (i.e. 20 μM), and the range of concentrations that completely depress translation in our biological model (i.e. 50 μM, 100 μM and 200 μM, FIG. 10a). We treat MCF7 cells with both 20 and 100 μM puromycin for 2 hours before adding 3PB (100 μM, 10 min) or 3PBis (50 μM, 10 min). Probe-labeled proteins were coupled to a Cy3-azide reporter tag using CuAAC chemistry, separated by SDS-PAGE and detected by in-gel fluorescence scanning. We observed about 50% reduction of the labelling at 65 kDa after puromycin treatment for both probes (FIG. 5c-d). […] To better understand if the labelling is related to the activity of the ribosomal peptidyl transferase centre (PTC), we pre-treated cells with high concentrations of CHX (350 μM) before adding puromycin (100 μM) to fully block the ribosome catalytic activity^8. […]

28S ribosomal RNA = assay: Labelling of rRNA by 3PBis, Cy3 in-gel fluorescence; settings: MCF7, Cy3 conjugation, total RNA agarose gel
Description: FIG. 20. 3PBis-ribosome interaction and labelling of 28S rRNA. MCF7 cells were incubated with 3PBis, fixed and conjugated with Cy3. After extraction, total RNA was run in agarose gel and stained with Syber gold or visualized by in-gel fluorescence scanning.
We investigated the possibility that 3Px molecules directly reacts in the ribosome itself. If 3Px enters the ribosome as puromycin does, it should bind only the large ribosomal subunit, and in particular the rRNA 28S that form the catalytic pocket of the ribosome.

MCF7 cells [5] = assay: Puromycin concentration effect on translation, puromycin immunoblot; settings: MCF7, 2 hours
Description: FIG. 10. Effect of ribosome inhibitors on 3PB/3PBis binding. (a) Immunoblot of puromycin on total protein extracts from, MCF7 cell treated with increasing concentrations of puromycin (incubation time: 2 hours). CHX+Puro: 350 μM CHX before puromycin treatment (20, 50, 100, 200 μM). 3PBis treatment: (50 μM, 10 min); −, not treatment. (b) On the left, immunoblot with anti-puromycin antibody on total protein extracts from MCF7 cells treat with the indicated drugs. CHX, 350 μM, 5 min; Puromycin, 100 μM, 2 hours; 3PB, 50 μM, 10 min. On the right, CuAAC coupling with Biotin-azide was performed on the cell lysate before total protein extract and SDS-PAGE. The staining of the membrane was performed with Streptavidin-HRP. (c) Sketch that summarize the effect of puromycin treatment on the 3PB-3PBis labelling.
Next, we asked if the labelling is sensitive on puromycin treatment (i.e. dependent on ribosome activity). To do that, we first treated MCF7 cell with puromycin followed by 10 min incubation with 3PB or 3PBis. When used in minimal amounts, puromycin can be incorporated in neosynthesized proteins^25, while high concentrations as well as long incubation times, fully block translation. […] Probe-labeled proteins were coupled to a Cy3-azide reporter tag using CuAAC chemistry, separated by SDS-PAGE and detected by in-gel fluorescence scanning. […]

SMILES: C#CCOCCC(=O)NCCOCCOCCNC(=O)N[C@@H](Cc1ccc(OC)cc1)C(=O)N[C@H]1C(OC(=O)OCCC2(C)N=N2)C(n2cnc3c(N(C)C)ncnc32)O[C@@H]1COC(=O)OCCC1(C)N=N1 (some centres unmarked) [3PBis]
- reduction of probe labelling by VER-155008 [1]: 1.2 ×
- protein labeling signal ([2]; HEK293 and MCF7, probes added before or after cell lysis, UV 0.75 J/cm2): concentration-dependent increases in protein labeling
- functional (binding) activity ([2]; depending on position of UV-active diazirine on ribose): possess the functional activity
- reduction of the polysome/80S ratio (MCF7 cells [3]): 10%
- reduction of the labelling at 65 kDa after puromycin treatment (MCF7 cells [4]): about 50%
- interaction with 28S rRNA (28S ribosomal RNA): directly interact with the 28S ribosomal RNA

SMILES: C#CCOc1cc(C2(C(F)(F)F)N=N2)ccc1C(=O)N[C@@H](Cc1ccc(OC)cc1)C(=O)N[C@H]1[C@@H](O)[C@H](n2cnc3c(N(C)C)ncnc32)O[C@@H]1CO [3PN]
- labelling efficiency after anisomycin and arsenite pre-treatment ([2]; MCF7, FIG. 8a): strong reduction

SMILES: COc1ccc(C[C@H](N)C(=O)N[C@H]2[C@@H](O)[C@H](n3cnc4c(N(C)C)ncnc43)O[C@@H]2CO)cc1 [puromycin, Puromycin]
- concentration that allows puromycin to be incorporated in the nascent peptide chain (MCF7 cells [5]): 20 µM
